# Target: HPK1 (Homo sapiens (Human), UniProt Q92918)
# Assay: HPK1 Inhibition Assay (ADP-Glo kinase assay)
# Format: biochemical
# Details: ATP 10 μM
# Procedure, shortened: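 ADP-Glo luminescence read-out after 1 h room-temperature kinase reaction with 10 μM ATP and 0.1 μg/ml MBP. Recombinant human HPK1 at 7.5 ng/μl; buffer 40 mM Tris pH 7.5, 20 mM MgCl2. Compounds serially diluted 5-fold over 10 points from 10 mM DMSO stock.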
# Chain of HPK1 (Q92918 1-346 limits assumed): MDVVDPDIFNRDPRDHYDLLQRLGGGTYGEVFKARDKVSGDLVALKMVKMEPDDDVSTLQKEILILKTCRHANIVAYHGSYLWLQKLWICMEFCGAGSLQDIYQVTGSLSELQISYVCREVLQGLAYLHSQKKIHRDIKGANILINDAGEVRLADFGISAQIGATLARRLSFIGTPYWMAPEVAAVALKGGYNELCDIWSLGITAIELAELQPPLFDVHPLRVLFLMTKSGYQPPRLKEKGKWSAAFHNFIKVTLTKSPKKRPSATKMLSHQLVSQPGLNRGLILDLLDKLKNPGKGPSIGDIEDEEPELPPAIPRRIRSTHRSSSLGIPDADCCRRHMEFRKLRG
row,IC50 [nM],Structure (SMILES)
1,< 100,"CC(C)n1ncc2c(N3CC[C@@H](N)C3)c(NC(=O)c3ccc(=O)n(-c4c(F)cccc4F)n3)cc(F)c21 [Example 188, (R)-N-(4-(3-aminopyrrolidin-1-yl)-7-fluoro-1-isopropyl-1H-indazol-5-yl)-1-(2,6-difluorophenyl)-6-oxo-1,6-dihydropyridazine-3-carboxamide]"
2,< 100,"CC(C)c1nc2c(N3CC[C@@H](N)C3)c(NC(=O)c3ccnn(-c4c(F)cccc4F)c3=O)ccc2n1C [Example 163, (R)-N-(4-(3-aminopyrrolidin-1-yl)-2-isopropyl-1-methyl-1H-benzo[d]imidazol-5-yl)-2-(2,6-difluorophenyl)-3-oxo-2,3-dihydropyridazine-4-carboxamide]"
3,< 100,"COc1cccc(F)c1-c1nccc(C(=O)Nc2ccc3c(nc(C)n3C)c2N2CC[C@H](N)C2)c1F [Example 10, N-(4-((S)-3-aminopyrrolidin-1-yl)-1,2-dimethyl-1H-benzo[d]imidazol-5-yl)-3-fluoro-2-(2-fluoro-6-methoxyphenyl)isonicotinamide]"
4,< 100,"CC(C)c1nc2c(N3CC[C@@H](O)C3)c(NC(=O)c3ccc(=O)n(-c4c(F)cccc4F)n3)ccc2n1C [Example 117, (R)-1-(2,6-difluorophenyl)-N-(4-(3-hydroxypyrrolidin-1-yl)-2-isopropyl-1-methyl-1H-benzo[d]imidazol-5-yl)-6-oxo-1,6-dihydropyridazine-3-carboxamide]"
5,< 100,"C[C@H]1CN(c2c(NC(=O)c3ccc(=O)n(-c4c(F)cccc4F)n3)ccc3nn(C45CCC(CC4)C5)cc23)C[C@@H]1N [Example 312, N-(4-((3R,4S)-3-amino-4-methylpyrrolidin-1-yl)-2-(bicyclo[2.2.1]heptan-1-yl)-2H-indazol-5-yl)-1-(2,6-difluorophenyl)-6-oxo-1,6-dihydropyridazine-3-carboxamide]"
6,< 100,"CC[C@H]1CN(c2c(NC(=O)c3ccc(=O)n(-c4c(F)cccc4F)n3)cc(F)c3c2cnn3C(C)C)C[C@H]1N [Example 203, N-(4-((35,4S)-3-amino-4-ethylpyrrolidin-1-yl)-7-fluoro-1-isopropyl-1H-indazol-5-yl)-1-(2,6-difluorophenyl)-6-oxo-1,6-dihydropyridazine-3-carboxamide]"
7,< 100,"CC(C)n1nnc2c(N3C[C@H](N)C4(CC4)C3)c(NC(=O)c3ccc(=O)n(-c4c(F)cccc4F)n3)ccc21 [Example 340, 1-(2,6-difluorophenyl)-N-{4-[(7R)-7-amino-5-azaspiro[2.4]heptan-5-yl]-1-(prop-2-yl)benzo[d][1,2,3]triazol-5-yl}-6-oxo-1,2-diazine-3-carboxamide]"
8,< 100,"COc1cccc(F)c1-c1nccc(C(=O)Nc2ccc(-c3cnccc3C#N)cc2N2C[C@@H](N)C[C@H]2CO)c1F [Example 13, N-(2-((2S,4S)-4-amino-2-(hydroxymethyl)pyrrolidin-1-yl)-4-(4-cyanopyridin-3-yl)phenyl)-3-fluoro-2-(2-fluoro-6-methoxyphenyl)isonicotinamide]"
9,< 100,"CC(C)n1ncc2c(N3C[C@@H](C)[C@@H](N)C3)c(NC(=O)c3ccc(=O)n(-c4c(F)cccc4F)n3)ccc21 [Example 180, N-(4-((3R,4R)-3-amino-4-methylpyrrolidin-1-yl)-1-isopropyl-1H-indazol-5-yl)-1-(2,6-difluorophenyl)-6-oxo-1,6-dihydropyridazine-3-carboxamide]"
10,100 to 1000,"COc1cccc(F)c1-n1cccc(C(=O)Nc2cc(F)c3nn(C)cc3c2N2C[C@H]3C[C@@H]2CN3)c1=O [Example 52, N-(4-((1R,4R)-2,5-diazabicyclo[2.2.1]heptan-2-yl)-7-fluoro-2-methyl-2H-indazol-5-yl)-1-(2-fluoro-6-methoxyphenyl)-2-oxo-1,2-dihydropyridine-3-carboxamide]"
11,< 100,"C[C@@H]1CN(c2c(NC(=O)c3ccc(=O)n(-c4c(F)cccc4F)n3)ccc3nn(C4CC(F)(F)C4)cc23)C[C@@H]1N [Example 307, N-(4-((3R,4R)-3-amino-4-methylpyrrolidin-1-yl)-2-(3,3-difluorocyclobutyl)-2H-indazol-5-yl)-1-(2,6-difluorophenyl)-6-oxo-1,6-dihydropyridazine-3-carboxamide]"
12,< 100,"C[C@H]1CN(c2c(NC(=O)c3ccc(=O)n(-c4c(F)cccc4F)n3)ccc3c2cnn3C2CCOCC2)C[C@@H]1N [Example 273, N-(4-((3R,4S)-3-amino-4-methylpyrrolidin-1-yl)-1-(tetrahydro-2H-pyran-4-yl)-1H-indazol-5-yl)-1-(2,6-difluorophenyl)-6-oxo-1,6-dihydropyridazine-3-carboxamide]"
13,< 100,"Cc1nc2c(N3CC[C@H](N)C3)c(NC(=O)c3ccc(=O)n(-c4c(F)cccc4F)n3)ccc2n1C1CCN(C)CC1 [Example 106, (S)—N-(4-(3-aminopyrrolidin-1-yl)-2-methyl-1-(1-methylpiperidin-4-yl)-1H-benzo[d]imidazol-5-yl)-1-(2,6-difluorophenyl)-6-oxo-1,6-dihydropyridazine-3-carboxamide]"
14,< 100,"CC(C)n1ncc2c(N3CC[C@@H](NCCO)C3)c(NC(=O)c3ccc(=O)n(-c4c(F)cccc4F)n3)ccc21 [Example 213, (R)-1-(2,6-difluorophenyl)-N-(4-(3-((2-hydroxyethyl)amino)pyrrolidin-1-yl)-1-isopropyl-1H-indazol-5-yl)-6-oxo-1,6-dihydropyridazine-3-carboxamide]"
15,< 100,"[2H]C([2H])([2H])C([2H])(n1ncc2c(N3C[C@H](N)C4(CC4)C3)c(NC(=O)c3ccc(=O)n(-c4c(F)cccc4F)n3)ccc21)C([2H])([2H])[2H] [Example 276, (R)-N-(4-(7-amino-5-azaspiro[2.4]heptan-5-yl)-1-(propan-2-yl-d7)-1H-indazol-5-yl)-1-(2,6-difluorophenyl)-6-oxo-1,6-dihydropyridazine-3-carboxamide]"
16,< 100,"CC(C)c1nc2c(N3CCC(N)CC3)c(NC(=O)c3ccc(=O)n(-c4c(F)cccc4F)n3)ccc2n1C [Example 133, N-(4-(4-aminopiperidin-1-yl)-2-isopropyl-1-methyl-1H-benzo[d]imidazol-5-yl)-1-(2,6-difluorophenyl)-6-oxo-1,6-dihydropyridazine-3-carboxamide]"
17,< 100,"N#Cc1ccncc1-c1ccc(NC(=O)c2ccc(=O)n(-c3c(F)cccc3F)n2)c(N2CCC[C@@H](N)C2)c1 [Example 345, (R)-N-(2-(3-aminopiperidin-1-yl)-4-(4-cyanopyridin-3-yl)phenyl)-1-(2,6-difluorophenyl)-6-oxo-1,6-dihydropyridazine-3-carboxamide]"
18,< 100,"N#Cc1ccncc1-c1ccc(NC(=O)c2ccc(=O)n(-c3c(F)cccc3F)n2)c(N2CCC(O)CC2)c1 [Example 349, N-(4-(4-cyanopyridin-3-yl)-2-(4-hydroxypiperidin-1-yl)phenyl)-1-(2,6-difluorophenyl)-6-oxo-1,6-dihydropyridazine-3-carboxamide]"
19,< 100,"Cc1nn(C(C)C)c2ccc(NC(=O)c3ccc(=O)n(-c4c(F)cccc4F)n3)c(N3C[C@@H](C)[C@@H](N)C3)c12 [Example 192, N-(4-((3R,4R)-3-amino-4-methylpyrrolidin-1-yl)-1-isopropyl-3-methyl-1H-indazol-5-yl)-1-(2,6-difluorophenyl)-6-oxo-1,6-dihydropyridazine-3-carboxamide]"
20,< 100,"CC[C@]1(N)CCN(c2c(NC(=O)c3ccc(=O)n(-c4c(F)cccc4F)n3)ccc3c2nc(C(C)C)n3C)C1 [Example 122, (S)-N-(4-(3-amino-3-ethylpyrrolidin-1-yl)-2-isopropyl-1-methyl-1H-benzo[d]imidazol-5-yl)-1-(2,6-difluorophenyl)-6-oxo-1,6-dihydropyridazine-3-carboxamide]"
21,< 100,"Cn1c(C2(C(F)(F)F)CC2)nc2c(N3C[C@H](N)C4(CC4)C3)c(NC(=O)c3ccc(=O)n(-c4c(F)cccc4F)n3)ccc21 [Example 149, (R)-N-(4-(7-amino-5-azaspiro[2.4]heptan-5-yl)-1-methyl-2-(1-(trifluoromethyl)cyclopropyl)-1H-benzo[d]imidazol-5-yl)-1-(2,6-difluorophenyl)-6-oxo-1,6-dihydropyridazine-3-carboxamide]"
22,< 100,"CO[C@H]1CN(c2c(NC(=O)c3ccc(=O)n(-c4c(F)cccc4F)n3)ccc3c2cnn3C(C)C)C[C@H]1N [Example 205, N-(4-((3R,4S)-3-amino-4-methoxypyrrolidin-1-yl)-1-isopropyl-1H-indazol-5-yl)-1-(2,6-difluorophenyl)-6-oxo-1,6-dihydropyridazine-3-carboxamide]"
23,< 100,"COc1cccc(F)c1-c1nccc(C(=O)Nc2cc(F)ccc2N2C[C@H]3C[C@@H]2CN3)c1F [Example 2, N-(2-((1R,4R)-2,5-diazabicyclo[2.2.1]heptan-2-yl)-5-fluorophenyl)-3-fluoro-2-(2-fluoro-6-methoxyphenyl)isonicotinamide]"
24,< 100,"Cc1nc2c(N3CCNC4(CC4)C3)c(NC(=O)c3ccc(=O)n(-c4c(F)cccc4F)n3)ccc2n1C [Example 81, 1-(2,6-difluorophenyl)-N-(1,2-dimethyl-4-(4,7-diazaspiro[2.5]octan-7-yl)-1H-benzo[d]imidazol-5-yl)-6-oxo-1,6-dihydropyridazine-3-carboxamide]"
25,100 to 1000,"Cc1nc2c(N3CCN(C)CC3)c(NC(=O)c3ccc(=O)n(-c4c(F)cccc4F)n3)ccc2n1C [Example 69, 1-(2,6-difluorophenyl)-N-(1,2-dimethyl-4-(4-methylpiperazin-1-yl)-1H-benzo[d]imidazol-5-yl)-6-oxo-1,6-dihydropyridazine-3-carboxamide]"

row,Structure (SMILES),IC50 [nM]
1,"COc1cccc(F)c1-c1nccc(C(=O)Nc2ccc3c(nc(C)n3C)c2C2C[C@H]3C[C@@H]2CN3)c1F (stereo partly drawn) [Example 7, N-(4-((1S,4S)-2-azabicyclo[2.2.1]heptan-5-yl)-1,2-dimethyl-1H-benzo[d]imidazol-5-yl)-3-fluoro-2-(2-fluoro-6-methoxyphenyl)isonicotinamide]",< 100

# From patent US20250122174A1 (Shenzhen Yuanli Shenwan Innovative Medicine Co., Ltd., priority 2022, published 2025)
